Converted amounts (≈) assume the structure as drawn. The source made the active and inactive calls. The rule behind the calls is not given here.
Experiments:
[1] = system: Escherichia coli; assay: Antibacterial activity against Escherichia coli after 24 hrs by twofold serial dilution method; format: functional
[2] = system: Aspergillus flavus; assay: Antifungal activity against Aspergillus flavus after 72 to 96 hrs by twofold serial dilution method; format: functional
[3] = system: Candida albicans; assay: Antifungal activity against Candida albicans after 72 to 96 hrs by twofold serial dilution method; format: functional
[4] = system: Salmonella typhi; assay: Antibacterial activity against Salmonella typhi after 24 hrs by twofold serial dilution method; format: functional, Salmonella enterica subsp. enterica serovar Typhi; conditions: Salmonella enterica
[5] = system: Staphylococcus aureus; assay: Antibacterial activity against Staphylococcus aureus after 24 hrs by twofold serial dilution method; format: functional
[6] = system: Rhizopus; assay: Antifungal activity against Rhizopus sp. after 72 to 96 hrs by twofold serial dilution method; format: functional
[7] = system: Aspergillus niger; assay: Antifungal activity against Aspergillus niger after 72 to 96 hrs by twofold serial dilution method; format: functional
[8] = system: Pseudomonas aeruginosa; assay: Antibacterial activity against Pseudomonas aeruginosa after 24 hrs by twofold serial dilution method; format: functional
[9] = system: Candida albicans; assay: Antifungal activity against Candida albicans at 200 ug/ml after 72 to 96 hrs by twofold serial dilution method; format: functional, organism-based
[10] = system: Salmonella typhi; assay: Antibacterial activity against Salmonella typhi at 200 ug/ml after 24 hrs by twofold serial dilution method; format: functional, organism-based; conditions: Salmonella enterica subsp. enterica serovar Typhi
[11] = system: Escherichia coli; assay: Antibacterial activity against Escherichia coli at 200 ug/ml after 24 hrs by twofold serial dilution method; format: functional, organism-based
[12] = system: Aspergillus flavus; assay: Antifungal activity against Aspergillus flavus at 200 ug/ml after 72 to 96 hrs by twofold serial dilution method; format: functional, organism-based

COc1ccc(C2C(C)C(=O)C(C)C(c3ccc(OC)cc3)N2C(=O)CN2CCOCC2)cc1 (stereo not drawn)
MIC [1]: 12.5 µg/mL (≈ 26.8 µM) | MIC [2]: 100 µg/mL (≈ 214 µM) | MIC [3]: 100 µg/mL (≈ 214 µM) | MIC [4]: 25 µg/mL (≈ 53.6 µM) | MIC [5]: 6.25 µg/mL (≈ 13.4 µM) | MIC [6]: 50 µg/mL (≈ 107 µM) | MIC [7]: 50 µg/mL (≈ 107 µM) | MIC [8]: 12.5 µg/mL (≈ 26.8 µM)

C[C@@H]1[C@H](O)[C@@H](C)/C=C/C=C/C=C/C=C/C=C/C=C/C=C/[C@H](O[C@@H]2O[C@H](C)[C@@H](O)[C@H](N)[C@@H]2O)C[C@@H]2O[C@](O)(C[C@@H](O)C[C@@H](O)[C@H](O)CC[C@@H](O)C[C@@H](O)CC(=O)O[C@H]1C)C[C@H](O)[C@H]2C(=O)O [AMPHOTERICIN B]
MIC [2]: 50 µg/mL (≈ 54.1 µM) | MIC [3]: 25 µg/mL (≈ 27.1 µM) | MIC [6]: 25 µg/mL (≈ 27.1 µM) | MIC [7]: 50 µg/mL (≈ 54.1 µM)

Cc1ccc(C2C(C)C(=O)C(C)C(c3ccc(C)cc3)N2C(=O)CN2CCOCC2)cc1 (stereo not drawn)
MIC [1]: 25 µg/mL (≈ 57.5 µM) | MIC [2]: 25 µg/mL (≈ 57.5 µM) | MIC [3]: 50 µg/mL (≈ 115 µM) | MIC [4]: 6.25 µg/mL (≈ 14.4 µM) | MIC [5]: 50 µg/mL (≈ 115 µM) | MIC [6]: 25 µg/mL (≈ 57.5 µM) | MIC [7]: 50 µg/mL (≈ 115 µM) | MIC [8]: 6.25 µg/mL (≈ 14.4 µM)

CC1C(=O)C(C)C(c2ccccc2)N(C(=O)CN2CCOCC2)C1c1ccccc1 (stereo not drawn)
MIC [1]: 100 µg/mL (≈ 246 µM) | MIC [2]: 50 µg/mL (≈ 123 µM) | MIC [3]: 50 µg/mL (≈ 123 µM) | MIC [4]: 50 µg/mL (≈ 123 µM) | MIC [5]: 50 µg/mL (≈ 123 µM) | MIC [6]: 12.5 µg/mL (≈ 30.7 µM) | MIC [7]: 25 µg/mL (≈ 61.5 µM) | MIC [8]: 25 µg/mL (≈ 61.5 µM)

COc1ccc(C2CC(=O)C(C)C(c3ccc(OC)cc3)N2C(=O)CN2CCOCC2)cc1 (stereo not drawn)
MIC [1]: 100 µg/mL (≈ 221 µM) | MIC [2]: 12.5 µg/mL (≈ 27.6 µM) | MIC [3]: 25 µg/mL (≈ 55.2 µM) | MIC [4]: 50 µg/mL (≈ 110 µM) | MIC [5]: 50 µg/mL (≈ 110 µM) | MIC [6]: 6.25 µg/mL (≈ 13.8 µM) | MIC [7]: 50 µg/mL (≈ 110 µM) | MIC [8]: 25 µg/mL (≈ 55.2 µM)

CC(C)C1C(=O)CC(c2ccccc2)N(C(=O)CN2CCOCC2)C1c1ccccc1 (stereo not drawn)
MIC [1]: 100 µg/mL (≈ 238 µM) | MIC [2]: 100 µg/mL (≈ 238 µM) | MIC [3]: 50 µg/mL (≈ 119 µM) | MIC [4]: 200 µg/mL (≈ 476 µM) | MIC [5]: 100 µg/mL (≈ 238 µM) | MIC [6]: 25 µg/mL (≈ 59.4 µM) | MIC [7]: 50 µg/mL (≈ 119 µM) | MIC [8]: 50 µg/mL (≈ 119 µM)

CC1C(=O)CC(c2ccccc2)N(C(=O)CN2CCOCC2)C1c1ccccc1 (stereo not drawn)
MIC [1]: 100 µg/mL (≈ 255 µM) | MIC [2]: 50 µg/mL (≈ 127 µM) | Activity [9]: inactive | MIC [5]: 200 µg/mL (≈ 510 µM) | MIC [6]: 100 µg/mL (≈ 255 µM) | MIC [7]: 50 µg/mL (≈ 127 µM) | MIC [8]: 50 µg/mL (≈ 127 µM) | Activity [10]: inactive

CCC1C(=O)CC(c2ccccc2)N(C(=O)CN2CCOCC2)C1c1ccccc1 (stereo not drawn)
MIC [1]: 50 µg/mL (≈ 123 µM) | MIC [2]: 100 µg/mL (≈ 246 µM) | MIC [3]: 100 µg/mL (≈ 246 µM) | MIC [4]: 100 µg/mL (≈ 246 µM) | MIC [5]: 50 µg/mL (≈ 123 µM) | MIC [6]: 200 µg/mL (≈ 492 µM) | MIC [7]: 100 µg/mL (≈ 246 µM) | MIC [8]: 25 µg/mL (≈ 61.5 µM)

O=C1CC(c2ccccc2)N(C(=O)CN2CCOCC2)C(c2ccccc2)C1 (stereo not drawn)
Activity [11]: inactive | Activity [9]: inactive | MIC [4]: 100 µg/mL (≈ 264 µM) | MIC [5]: 200 µg/mL (≈ 528 µM) | Activity [12]: inactive | MIC [6]: 100 µg/mL (≈ 264 µM) | MIC [7]: 200 µg/mL (≈ 528 µM) | MIC [8]: 100 µg/mL (≈ 264 µM)

O=C(O)c1cn(C2CC2)c2cc(N3CCNCC3)c(F)cc2c1=O [CIPROFLOXACIN]
MIC [1]: 25 µg/mL (≈ 75.4 µM) | MIC [4]: 50 µg/mL (≈ 151 µM)

CC1C(=O)C(C)C(c2ccc(Cl)cc2)N(C(=O)CN2CCOCC2)C1c1ccc(Cl)cc1 (stereo not drawn)
MIC [1]: 25 µg/mL (≈ 52.6 µM) | MIC [2]: 6.25 µg/mL (≈ 13.1 µM) | MIC [3]: 6.25 µg/mL (≈ 13.1 µM) | MIC [4]: 100 µg/mL (≈ 210 µM) | MIC [5]: 25 µg/mL (≈ 52.6 µM) | MIC [6]: 25 µg/mL (≈ 52.6 µM) | MIC [7]: 25 µg/mL (≈ 52.6 µM) | MIC [8]: 50 µg/mL (≈ 105 µM)

From ChEMBL document CHEMBL1147164, “Synthesis, stereochemistry and antimicrobial evaluation of some N-morpholinoacetyl-2,6-diarylpiperidin-4-ones” (2007)
